Data reported in patent US20250230193A1, “CYCLIC COMPOUND HAVING SELECTIVE KRAS INHIBITORY EFFECT ON HRAS AND NRAS” (CHUGAI SEIYAKU KABUSHIKI KAISHA, priority 2022, published 2025).
*1 amine or outer side, *2 acyl side, *3 side chain or, on linkers, in order; H or OH if unused. Where a SMILES comes first, the peptide text is derived from it. Bridges are numbered along the chain shown (N, C = ends). [ ]: non-standard residue; d: D form. The star is where a group is joined. hPhe(3,5-F2-4-CF3) = N[C@@H](CCc1cc(F)c(C(F)(F)F)c(F)c1)C(=O)O; NPrPhe(4-CF3) = CCCN[C@@H](Cc1ccc(C(F)(F)F)cc1)C(=O)O; NMeAbu(4,4,4-F3) = CN[C@@H](CC(F)(F)F)C(=O)O; NMeGly(cPent) = CN[C@H](C(=O)O)C1CCCC1; Ac4c(3,3-F2) = NC1(C(=O)O)CC(F)(F)C1; X13 = CCC[C@](C)(N[*:1])C(=O)[*:2]; αMeCha = C[C@](N)(CC1CCCCC1)C(=O)O; αMeI = CC[C@H](C)[C@](C)(N)C(=O)O; NMeD = CN[C@@H](CC(=O)O)C(=O)O; Ac4c(3-oxa) = NC1(C(=O)O)COC1; NMeL = CN[C@@H](CC(C)C)C(=O)O; αMeL = CC(C)C[C@](C)(N)C(=O)O; αMeV = CC(C)[C@](C)(N)C(=O)O; αMeS = C[C@](N)(CO)C(=O)O; Iva = CC[C@](C)(N)C(=O)O; Morpholide = C1CN(*)CCO1; Ac5c = NC1(C(=O)O)CCCC1; Sar = CNCC(=O)O; tBu = CC(C)(C)*; Allyl = C=CC*

Legend:
[1] = biological target: GDP-bound NRAS wild-type protein (Homo sapiens, UniProt P01111); assay: Binding to NRAS by surface plasmon resonance (SPR), Single Cycle Kinetics; details: KD ratio NRAS/KRAS, SPR
[2] = biological target: GDP-bound HRAS wild-type protein (Homo sapiens, UniProt P01112); assay: Binding to HRAS by surface plasmon resonance (SPR), Single Cycle Kinetics; details: KD ratio HRAS/KRAS, SPR
GDP-bound HRAS wild-type protein, sequence (P01112 whole entry): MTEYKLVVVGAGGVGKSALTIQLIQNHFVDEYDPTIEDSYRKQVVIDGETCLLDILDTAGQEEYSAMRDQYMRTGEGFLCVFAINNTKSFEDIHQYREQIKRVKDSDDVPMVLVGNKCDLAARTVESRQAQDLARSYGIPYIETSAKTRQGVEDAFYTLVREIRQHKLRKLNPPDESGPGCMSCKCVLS

GDP-bound NRAS wild-type protein, sequence (P01111 whole entry): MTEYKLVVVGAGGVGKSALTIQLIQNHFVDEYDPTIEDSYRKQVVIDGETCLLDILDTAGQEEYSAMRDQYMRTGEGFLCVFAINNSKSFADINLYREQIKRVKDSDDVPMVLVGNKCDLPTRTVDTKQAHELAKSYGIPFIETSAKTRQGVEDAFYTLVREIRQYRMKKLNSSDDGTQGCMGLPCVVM

Row | SMILES | NRAS/KRAS (ratio of KD value with respect to GDP-bound NRAS wild-type protein to KD value with respect to KRAS) [1] | HRAS/KRAS (ratio of KD value with respect to GDP-bound HRAS wild-type protein to KD value with respect to KRAS) [2]
1 | CCCN1C(=O)CN(C)C(=O)CN(C)C(=O)[C@H]([C@@H](C)CC)NC(=O)[C@H](CC(C)C)N(C)C(=O)C[C@@H](C(=O)N2CCOCC2)N(C)C(=O)[C@H](C2CCCC2)N(C)C(=O)[C@](C)(CC)NC(=O)[C@@H]2CCCN2C(=O)[C@H](CCc2cc(F)c(C(F)(F)F)c(F)c2)NC(=O)CN(C)C(=O)[C@@H]1Cc1ccc(C(F)(F)F)cc1 [PP0754] ([NMeL]I[Sar][Sar][NPrPhe(4-CF3)][Sar][hPhe(3,5-F2-4-CF3)]P[Iva][NMeGly(cPent)][NMeD]-Morpholide; lactam N-11) | B (a compound having 3 or more and less than 10 is denoted as B) | C (A compound having a KD ratio of 0.1 or more and less than 3 is denoted as C)
2 | CCCN1C(=O)CN(C)C(=O)CN(C)C(=O)[C@H]([C@@H](C)CC)NC(=O)[C@H](CC(C)C)N(C)C(=O)C[C@@H](C(=O)N2CCOCC2)N(C)C(=O)[C@H](C2CCCC2)N(C)C(=O)[C@](C)(C(C)C)NC(=O)[C@@H]2CCCN2C(=O)[C@H](CCc2cc(F)c(C(F)(F)F)c(F)c2)NC(=O)CN(C)C(=O)[C@@H]1Cc1ccc(C(F)(F)F)cc1 [PP0756] ([NMeL]I[Sar][Sar][NPrPhe(4-CF3)][Sar][hPhe(3,5-F2-4-CF3)]P[αMeV][NMeGly(cPent)][NMeD]-Morpholide; lactam N-11) | B (a compound having 3 or more and less than 10 is denoted as B) | B (a compound having 3 or more and less than 10 is denoted as B)
3 | CCCN1C(=O)CN(C)C(=O)CN(C)C(=O)[C@H]([C@@H](C)CC)NC(=O)[C@H](CC(C)C)N(C)C(=O)C[C@@H](C(=O)N2CCOCC2)N(C)C(=O)[C@H](C2CCCC2)N(C)C(=O)[C@](C)([C@@H](C)CC)NC(=O)[C@@H]2CCCN2C(=O)[C@H](CCc2cc(F)c(C(F)(F)F)c(F)c2)NC(=O)CN(C)C(=O)[C@@H]1Cc1ccc(C(F)(F)F)cc1 [PP0757] ([NMeL]I[Sar][Sar][NPrPhe(4-CF3)][Sar][hPhe(3,5-F2-4-CF3)]P[αMeI][NMeGly(cPent)][NMeD]-Morpholide; lactam N-11) | B (a compound having 3 or more and less than 10 is denoted as B) | C (A compound having a KD ratio of 0.1 or more and less than 3 is denoted as C)
4 | CCCN1C(=O)CN(C)C(=O)CN(C)C(=O)[C@H]([C@@H](C)CC)NC(=O)[C@H](CC(C)C)N(C)C(=O)C[C@@H](C(=O)N2CCOCC2)N(C)C(=O)[C@H](C2CCCC2)N(C)C(=O)[C@](C)(CCC)NC(=O)[C@@H]2CCCN2C(=O)[C@H](CCc2cc(F)c(C(F)(F)F)c(F)c2)NC(=O)CN(C)C(=O)[C@@H]1Cc1ccc(C(F)(F)F)cc1 [PP0758] ([NMeL]I[Sar][Sar][NPrPhe(4-CF3)][Sar][hPhe(3,5-F2-4-CF3)]P[X13][NMeGly(cPent)][NMeD]-Morpholide; lactam N-11) | B (a compound having 3 or more and less than 10 is denoted as B) | C (A compound having a KD ratio of 0.1 or more and less than 3 is denoted as C)
5 | CCCN1C(=O)CN(C)C(=O)CN(C)C(=O)[C@H]([C@@H](C)CC)NC(=O)[C@H](CC(C)C)N(C)C(=O)C[C@@H](C(=O)N2CCOCC2)N(C)C(=O)[C@H](C2CCCC2)N(C)C(=O)[C@](C)(CC(C)C)NC(=O)[C@@H]2CCCN2C(=O)[C@H](CCc2cc(F)c(C(F)(F)F)c(F)c2)NC(=O)CN(C)C(=O)[C@@H]1Cc1ccc(C(F)(F)F)cc1 [PP0759] ([NMeL]I[Sar][Sar][NPrPhe(4-CF3)][Sar][hPhe(3,5-F2-4-CF3)]P[αMeL][NMeGly(cPent)][NMeD]-Morpholide; lactam N-11) | B (a compound having 3 or more and less than 10 is denoted as B) | B (a compound having 3 or more and less than 10 is denoted as B)
6 | CCCN1C(=O)CN(C)C(=O)CN(C)C(=O)[C@H]([C@@H](C)CC)NC(=O)[C@H](CC(C)C)N(C)C(=O)C[C@@H](C(=O)N2CCOCC2)N(C)C(=O)[C@H](C2CCCC2)N(C)C(=O)[C@](C)(CC2CCCCC2)NC(=O)[C@@H]2CCCN2C(=O)[C@H](CCc2cc(F)c(C(F)(F)F)c(F)c2)NC(=O)CN(C)C(=O)[C@@H]1Cc1ccc(C(F)(F)F)cc1 [PP0760] ([NMeL]I[Sar][Sar][NPrPhe(4-CF3)][Sar][hPhe(3,5-F2-4-CF3)]P[αMeCha][NMeGly(cPent)][NMeD]-Morpholide; lactam N-11) | B (a compound having 3 or more and less than 10 is denoted as B) | C (A compound having a KD ratio of 0.1 or more and less than 3 is denoted as C)
7 | CCCN1C(=O)CN(C)C(=O)CN(C)C(=O)[C@H]([C@@H](C)CC)NC(=O)[C@H](CC(C)C)N(C)C(=O)C[C@@H](C(=O)N2CCOCC2)N(C)C(=O)[C@H](C2CCCC2)N(C)C(=O)[C@](C)(COC)NC(=O)[C@@H]2CCCN2C(=O)[C@H](CCc2cc(F)c(C(F)(F)F)c(F)c2)NC(=O)CN(C)C(=O)[C@@H]1Cc1ccc(C(F)(F)F)cc1 [PP0762] ([NMeL]I[Sar][Sar][NPrPhe(4-CF3)][Sar][hPhe(3,5-F2-4-CF3)]P[αMeS](Me)[NMeGly(cPent)][NMeD]-Morpholide; lactam N-11) | B (a compound having 3 or more and less than 10 is denoted as B) | B (a compound having 3 or more and less than 10 is denoted as B)
8 | C=CCOC[C@]1(C)NC(=O)[C@@H]2CCCN2C(=O)[C@H](CCc2cc(F)c(C(F)(F)F)c(F)c2)NC(=O)CN(C)C(=O)[C@H](Cc2ccc(C(F)(F)F)cc2)N(CCC)C(=O)CN(C)C(=O)CN(C)C(=O)[C@H]([C@@H](C)CC)NC(=O)[C@H](CC(C)C)N(C)C(=O)C[C@@H](C(=O)N2CCOCC2)N(C)C(=O)[C@H](C2CCCC2)N(C)C1=O [PP0763] ([NMeL]I[Sar][Sar][NPrPhe(4-CF3)][Sar][hPhe(3,5-F2-4-CF3)]P[αMeS](Allyl)[NMeGly(cPent)][NMeD]-Morpholide; lactam N-11) | B (a compound having 3 or more and less than 10 is denoted as B) | B (a compound having 3 or more and less than 10 is denoted as B)
9 | CCCN1C(=O)CN(C)C(=O)CN(C)C(=O)[C@H]([C@@H](C)CC)NC(=O)[C@H](CC(C)C)N(C)C(=O)C[C@@H](C(=O)N2CCOCC2)N(C)C(=O)[C@H](C2CCCC2)N(C)C(=O)[C@](C)(COC(C)(C)C)NC(=O)[C@@H]2CCCN2C(=O)[C@H](CCc2cc(F)c(C(F)(F)F)c(F)c2)NC(=O)CN(C)C(=O)[C@@H]1Cc1ccc(C(F)(F)F)cc1 [PP0764] ([NMeL]I[Sar][Sar][NPrPhe(4-CF3)][Sar][hPhe(3,5-F2-4-CF3)]P[αMeS](tBu)[NMeGly(cPent)][NMeD]-Morpholide; lactam N-11) | B (a compound having 3 or more and less than 10 is denoted as B) | B (a compound having 3 or more and less than 10 is denoted as B)
10 | CCCN1C(=O)CN(C)C(=O)CN(C)C(=O)[C@H]([C@@H](C)CC)NC(=O)[C@H](CC(C)C)N(C)C(=O)C[C@@H](C(=O)N2CCOCC2)N(C)C(=O)[C@H](C2CCCC2)N(C)C(=O)C2(COC2)NC(=O)[C@@H]2CCCN2C(=O)[C@H](CCc2cc(F)c(C(F)(F)F)c(F)c2)NC(=O)CN(C)C(=O)[C@@H]1Cc1ccc(C(F)(F)F)cc1 [PP0765] ([NMeL]I[Sar][Sar][NPrPhe(4-CF3)][Sar][hPhe(3,5-F2-4-CF3)]P[Ac4c(3-oxa)][NMeGly(cPent)][NMeD]-Morpholide; lactam N-11) | B (a compound having 3 or more and less than 10 is denoted as B) | C (A compound having a KD ratio of 0.1 or more and less than 3 is denoted as C)
11 | CCCN1C(=O)CN(C)C(=O)CN(C)C(=O)[C@H]([C@@H](C)CC)NC(=O)[C@H](CC(C)C)N(C)C(=O)C[C@@H](C(=O)N2CCOCC2)N(C)C(=O)[C@H](C2CCCC2)N(C)C(=O)C2(CC(F)(F)C2)NC(=O)[C@@H]2CCCN2C(=O)[C@H](CCc2cc(F)c(C(F)(F)F)c(F)c2)NC(=O)CN(C)C(=O)[C@@H]1Cc1ccc(C(F)(F)F)cc1 [PP0766] ([NMeL]I[Sar][Sar][NPrPhe(4-CF3)][Sar][hPhe(3,5-F2-4-CF3)]P[Ac4c(3,3-F2)][NMeGly(cPent)][NMeD]-Morpholide; lactam N-11) | B (a compound having 3 or more and less than 10 is denoted as B) | B (a compound having 3 or more and less than 10 is denoted as B)
12 | CCCN1C(=O)CN(C)C(=O)CN(C)C(=O)[C@H]([C@@H](C)CC)NC(=O)[C@H](CC(C)C)N(C)C(=O)C[C@@H](C(=O)N2CCOCC2)N(C)C(=O)[C@H](CC(F)(F)F)N(C)C(=O)C2(CCCC2)NC(=O)[C@@H]2CCCN2C(=O)[C@H](CCc2cc(F)c(C(F)(F)F)c(F)c2)NC(=O)CN(C)C(=O)[C@@H]1Cc1ccc(C(F)(F)F)cc1 [PP0767] ([NMeL]I[Sar][Sar][NPrPhe(4-CF3)][Sar][hPhe(3,5-F2-4-CF3)]P[Ac5c][NMeAbu(4,4,4-F3)][NMeD]-Morpholide; lactam N-11) | B (a compound having 3 or more and less than 10 is denoted as B) | C (A compound having a KD ratio of 0.1 or more and less than 3 is denoted as C)
